From ChEMBL document CHEMBL3875218, “Bifunctional conjugates with potent inhibitory activity towards cyclooxygenase and histone deacetylase” (Bioorg Med Chem, 2017)
Active and inactive are the calls of the source. No cut-off for these calls is given here.

Assays:
Histone deacetylase 3 = Histone deacetylase 3 (Homo sapiens, UniProt O15379); experiment: Inhibition of HDAC3 (unknown origin) after 5 hrs by SAMDI mass spectroscopic analysis
Histone deacetylase 8 = target: T1, Histone deacetylase 8 (Homo sapiens, UniProt Q9BY41); experiment: Inhibition of HDAC8 (unknown origin) after 2.5 hrs by SAMDI mass spectroscopic analysis
T1 sequence (Q9BY41 whole entry): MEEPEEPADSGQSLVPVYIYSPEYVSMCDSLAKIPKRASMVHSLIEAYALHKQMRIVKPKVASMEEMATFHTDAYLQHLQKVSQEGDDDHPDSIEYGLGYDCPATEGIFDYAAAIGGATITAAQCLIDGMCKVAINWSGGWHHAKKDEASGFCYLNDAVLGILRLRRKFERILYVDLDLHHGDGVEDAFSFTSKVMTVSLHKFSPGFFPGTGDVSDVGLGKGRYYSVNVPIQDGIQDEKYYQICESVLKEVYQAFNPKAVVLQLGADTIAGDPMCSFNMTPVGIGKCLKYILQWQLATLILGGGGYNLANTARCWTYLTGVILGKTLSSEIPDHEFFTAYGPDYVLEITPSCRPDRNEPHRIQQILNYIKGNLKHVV

LNCaP [1] = experiment: Inhibition of class 1 HDAC in human LNCAP cells assessed as acetylated histone H4 accumulation after 24 hrs by Western blot analysis; assay type: cell-based
LNCaP [2] = experiment: Inhibition of HDAC in human LNCAP cells assessed as down regulation of COX2 expression at 2 to 10 uM after 24 hrs by Western blot analysis; assay type: cell-based
[3] = target: T2, Prostaglandin G/H synthase 1 (Ovis aries, UniProt P05979); experiment: Inhibition of sheep COX1 using arachidonic acid as substrate preincubated for 15 mins followed by substrate addition for 2 mins by Cayman based fluorescence assay
T2 sequence (P05979 whole entry): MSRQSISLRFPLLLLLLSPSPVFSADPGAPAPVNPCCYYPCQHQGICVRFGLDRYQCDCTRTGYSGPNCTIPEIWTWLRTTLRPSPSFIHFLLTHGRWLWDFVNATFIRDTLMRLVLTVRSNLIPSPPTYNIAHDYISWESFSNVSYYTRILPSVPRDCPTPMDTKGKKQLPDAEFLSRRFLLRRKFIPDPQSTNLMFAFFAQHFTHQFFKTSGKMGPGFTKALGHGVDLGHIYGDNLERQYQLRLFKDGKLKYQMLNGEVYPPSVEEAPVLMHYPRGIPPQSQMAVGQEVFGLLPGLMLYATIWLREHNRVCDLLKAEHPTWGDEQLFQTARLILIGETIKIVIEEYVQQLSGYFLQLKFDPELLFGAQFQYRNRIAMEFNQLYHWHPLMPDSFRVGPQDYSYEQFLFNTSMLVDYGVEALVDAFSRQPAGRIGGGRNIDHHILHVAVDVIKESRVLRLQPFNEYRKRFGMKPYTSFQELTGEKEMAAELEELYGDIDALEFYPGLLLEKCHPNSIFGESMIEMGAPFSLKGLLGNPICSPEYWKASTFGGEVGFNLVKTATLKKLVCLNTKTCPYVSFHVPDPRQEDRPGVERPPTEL

Histone deacetylase 1 = Histone deacetylase 1 (Homo sapiens, UniProt Q13547); experiment: Inhibition of HDAC1 (unknown origin) after 24 hrs by SAMDI mass spectroscopic analysis
[4] = target: T3, Protein deacetylase HDAC6 (Homo sapiens, UniProt Q9UBN7); experiment: Inhibition of HDAC6 (unknown origin) after 20 hrs by SAMDI mass spectroscopic analysis
T3 sequence (Q9UBN7 whole entry): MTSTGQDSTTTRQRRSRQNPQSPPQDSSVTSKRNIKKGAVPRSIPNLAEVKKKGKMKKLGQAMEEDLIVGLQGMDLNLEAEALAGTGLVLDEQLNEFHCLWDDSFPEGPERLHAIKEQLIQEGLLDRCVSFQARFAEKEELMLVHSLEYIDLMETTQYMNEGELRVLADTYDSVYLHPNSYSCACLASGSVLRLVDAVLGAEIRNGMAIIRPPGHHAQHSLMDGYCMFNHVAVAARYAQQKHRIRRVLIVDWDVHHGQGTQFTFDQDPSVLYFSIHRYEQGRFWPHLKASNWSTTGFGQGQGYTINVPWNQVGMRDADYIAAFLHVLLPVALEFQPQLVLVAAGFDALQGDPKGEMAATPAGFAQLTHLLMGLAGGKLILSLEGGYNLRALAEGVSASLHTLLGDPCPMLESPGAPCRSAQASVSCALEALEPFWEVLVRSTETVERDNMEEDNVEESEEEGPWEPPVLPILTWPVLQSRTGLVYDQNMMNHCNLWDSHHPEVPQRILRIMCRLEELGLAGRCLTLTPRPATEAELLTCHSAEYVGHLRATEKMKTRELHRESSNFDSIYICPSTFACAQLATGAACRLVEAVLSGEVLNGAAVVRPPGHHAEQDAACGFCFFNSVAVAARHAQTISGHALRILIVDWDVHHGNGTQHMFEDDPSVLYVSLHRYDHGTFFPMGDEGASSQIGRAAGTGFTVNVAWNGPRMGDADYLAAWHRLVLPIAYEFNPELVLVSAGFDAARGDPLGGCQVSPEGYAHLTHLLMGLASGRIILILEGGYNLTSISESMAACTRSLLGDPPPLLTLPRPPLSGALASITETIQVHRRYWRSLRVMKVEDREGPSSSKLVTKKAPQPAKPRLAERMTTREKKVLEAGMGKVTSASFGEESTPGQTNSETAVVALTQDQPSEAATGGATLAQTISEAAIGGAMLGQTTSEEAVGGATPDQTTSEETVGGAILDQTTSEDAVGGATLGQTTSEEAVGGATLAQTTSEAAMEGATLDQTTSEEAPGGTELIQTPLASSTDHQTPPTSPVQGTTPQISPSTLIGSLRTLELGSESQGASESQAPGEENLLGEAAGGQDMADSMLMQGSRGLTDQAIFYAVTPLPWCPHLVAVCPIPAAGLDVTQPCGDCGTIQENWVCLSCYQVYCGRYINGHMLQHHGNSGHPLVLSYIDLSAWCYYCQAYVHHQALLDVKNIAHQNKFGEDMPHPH

[5] = Cytotoxicity against human A549 cells assessed as cell growth inhibition after 72 hrs by MTT assay; assay type: functional, cell-based; settings: A549, 72 h
LNCaP [6] = experiment: Inhibition of HDAC in human LNCAP cells assessed as down regulation of COX2 expression at 2 uM after 24 hrs by Western blot analysis; assay type: cell-based
[7] = Cytotoxicity against human LNCAP cells assessed as cell growth inhibition after 72 hrs by MTT assay; assay type: functional, cell-based
LNCaP [8] = experiment: Inhibition of HDAC in human LNCAP cells assessed as down regulation of androgen receptor expression after 24 hrs by Western blot analysis; assay type: cell-based
LNCaP [9] = experiment: Induction of cell cycle arrest in human LNCAP cells assessed as accumulation at S phase at 2.5 uM after 24 hrs by propidium iodide staining based FACS analysis (reference value: […]); assay type: functional
LNCaP [10] = experiment: Induction of cell cycle arrest in human LNCAP cells assessed as accumulation at G2 phase at 2.5 uM after 24 hrs by propidium iodide staining based FACS analysis (reference value: 1.08%); assay type: functional
[11] = Cytotoxicity against human HCT116 cells assessed as cell growth inhibition after 72 hrs by MTT assay; assay type: functional, cell-based; settings: HCT-116, 72 h

Sequence of Histone deacetylase 3 (O15379 whole entry): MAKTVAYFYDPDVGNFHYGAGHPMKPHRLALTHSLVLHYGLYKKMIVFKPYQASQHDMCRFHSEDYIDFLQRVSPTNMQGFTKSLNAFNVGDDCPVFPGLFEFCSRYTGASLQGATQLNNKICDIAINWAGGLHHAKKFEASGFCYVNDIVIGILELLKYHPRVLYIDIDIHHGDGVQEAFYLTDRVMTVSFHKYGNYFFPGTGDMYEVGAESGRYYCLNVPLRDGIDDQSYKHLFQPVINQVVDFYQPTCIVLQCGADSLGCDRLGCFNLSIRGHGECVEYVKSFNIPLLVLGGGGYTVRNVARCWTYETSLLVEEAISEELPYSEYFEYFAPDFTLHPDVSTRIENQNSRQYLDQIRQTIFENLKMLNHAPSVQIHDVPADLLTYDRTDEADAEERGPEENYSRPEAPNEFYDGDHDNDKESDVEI
Sequence of Histone deacetylase 1 (Q13547 whole entry): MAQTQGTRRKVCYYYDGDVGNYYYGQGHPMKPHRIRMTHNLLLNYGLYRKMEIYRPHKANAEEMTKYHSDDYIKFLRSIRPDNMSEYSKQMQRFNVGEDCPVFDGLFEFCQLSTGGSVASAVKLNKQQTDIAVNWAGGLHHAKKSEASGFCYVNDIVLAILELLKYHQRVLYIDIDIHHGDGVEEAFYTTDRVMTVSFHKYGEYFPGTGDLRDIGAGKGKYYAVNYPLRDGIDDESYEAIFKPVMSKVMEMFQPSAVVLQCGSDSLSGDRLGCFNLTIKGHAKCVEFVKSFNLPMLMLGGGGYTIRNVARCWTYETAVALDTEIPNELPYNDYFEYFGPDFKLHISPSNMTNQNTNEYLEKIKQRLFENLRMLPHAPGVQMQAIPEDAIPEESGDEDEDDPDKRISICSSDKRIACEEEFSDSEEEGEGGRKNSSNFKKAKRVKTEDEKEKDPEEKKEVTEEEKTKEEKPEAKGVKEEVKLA

IC50 (Histone deacetylase 3) [nM]	IC50 (Histone deacetylase 8) [nM]	IC50 [3] [nM]	IC50 (Histone deacetylase 1) [nM]	IC50 [4] [nM]	Structure (SMILES)	inhibition (LNCaP [1])	inhibition (LNCaP [2])	IC50 [5] [nM]	inhibition (LNCaP [6])	IC50 [7] [nM]	inhibition (LNCaP [8])	Activity (LNCaP [9]) [%]	Activity (LNCaP [10]) [%]	IC50 [11] [nM]
356	109	21000	980	49	COc1ccc2c(c1)c(CC(=O)NCCCCCCC(=O)NO)c(C)n2C(=O)c1ccc(Cl)cc1	Dose-dependent effect	Active	–	–	–	–	–	–	–
424	412	3570	1030	66	Cc1ccc(-c2cc(C(F)(F)F)nn2-c2ccc(S(=O)(=O)NCCCCCCC(=O)NO)cc2)cc1	Dose-dependent effect	–	8000	Active	2190	Dose-dependent effect	31.7	1.4	3380
